System: P. aeruginosa, PAM1723, overexpressing the MexAB-OprM efflux pump
Format: cell-based, Pseudomonas aeruginosa
Details: lowest EPI concentration giving antibacterial activity with levofloxacin at 1/8 of its MIC, MHB, 20 h at 35° C.
Experimental: All EPI compounds were readily soluble in water and stock solutions were prepared at a final concentration of 10 mg/ml. Stock solutions were further diluted, according to the needs of the particular assay, in Mueller Hinton Broth (MHB). Stock solution was stored at […].
The checkerboard assay was performed in microtiter plates. […] EPIs were diluted in the y-axis, each row containing a single concentration of an EPI. […] The assay was performed in MHB with a final bacterial inoculum of 5 times 10^5 CFU/ml (from an early-log phase culture). Microtiter plates were incubated during 20 h at 35° C. and were read using a microtiter plate reader (Molecular Devices) at 650 nm as well as visual observation using a microtiter plate-reading mirror.

SMILES | MPC8 (Minimum Potentiating Concentration)
NCCN(CCN)C(=O)CC[C@H](N)C(=O)N[C@H](CCc1ccc(C(F)(F)F)cc1)C(=O)Nc1cc(B(O)O)ccc1F [Compound 25, 3-((R)-2-((S)-2-amino-5-(bis(2-aminoethyl)amino)-5-oxopentanamido)-4-(4-(trifluoromethyl)phenyl)butanamido)-4-fluorophenylboronic acid] | B (B = MPC8 of 2.5 μg/ml to less than 10 μg/mL.)
CC1(C)OB(O)c2cc(NC(=O)[C@@H](CCc3ccc(C(F)(F)F)cc3)NC(=O)[C@@H](N)CCC(=O)N(CCN)CCN)ccc21 [Compound 26, (S)-2-amino-N5,N5-bis(2-aminoethyl)-N1-((R)-1-(1-hydroxy-3,3-dimethyl-1,3-dihydrobenzo[c][1,2]oxaborol-6-ylamino)-1-oxo-4-(4-(trifluoromethyl)phenyl)butan-2-yl)pentanediamide] | A (A = MPC8 of less than 2.5 μg/mL.)
CC1(C)OB(O)c2cc(NC(=O)[C@@H](CCc3ccc(C(F)(F)F)cc3)NC(=O)[C@@H](N)CCC(=O)NCC(O)(CN)CN)ccc21 [Compound 27, (S)-2-amino-N5-(3-amino-2-(aminomethyl)-2-hydroxypropyl)-N1-((R)-1-(1-hydroxy-3,3-dimethyl-1,3-dihydrobenzo[c][1,2]oxaborol-6-ylamino)-1-oxo-4-(4-(trifluoromethyl)phenyl)butan-2-yl)pentanediamide] | B (B = MPC8 of 2.5 μg/ml to less than 10 μg/mL.)
NCCN(CCN)C(=O)CC[C@H](N)C(=O)N[C@H](CCc1ccc(C(F)(F)F)cc1)C(=O)Nc1cc(B(O)O)cc(F)c1F [Compound 28, 3-((R)-2-((S)-2-amino-5-(bis(2-aminoethyl)amino)-5-oxopentanamido)-4-(4-(trifluoromethyl)phenyl)butanamido)-4,5-difluorophenylboronic acid] | A (A = MPC8 of less than 2.5 μg/mL.)
NCCN(CCN)C(=O)CC[C@H](N)C(=O)N[C@H](CCc1ccc(C(F)(F)F)cc1)C(=O)Nc1ccc(B(O)O)c(F)c1 [Compound 29, 4-((R)-2-((S)-2-amino-5-(bis(2-aminoethyl)amino)-5-oxopentanamido)-4-(4-(trifluoromethyl)phenyl)butanamido)-2-fluorophenylboronic acid] | B (B = MPC8 of 2.5 μg/ml to less than 10 μg/mL.)
NCCN(CCN)C(=O)CC[C@H](N)C(=O)N[C@H](CCc1ccc(C(F)(F)F)cc1)C(=O)Nc1cc(B(O)O)c(F)cc1F [Compound 30, 5-((R)-2-((S)-2-amino-5-(bis(2-aminoethyl)amino)-5-oxopentanamido)-4-(4-(trifluoromethyl)phenyl)butanamido)-2,4-difluorophenylboronic acid] | C (C = MPC8 of 10 μg/mL or greater.)
NCCN(CCN)C(=O)CC[C@H](N)C(=O)N[C@H](CCc1ccc(C(F)(F)F)cc1)C(=O)Nc1cc2c(c(C(F)(F)F)c1)COB2O [Compound 31, (S)-2-amino-N5,N5-bis(2-aminoethyl)-N1-((R)-1-(1-hydroxy-4-(trifluoromethyl)-1,3-dihydrobenzo[c][1,2]oxaborol-6-ylamino)-1-oxo-4-(4-(trifluoromethyl)phenyl)butan-2-yl)pentanediamide] | B (B = MPC8 of 2.5 μg/ml to less than 10 μg/mL.)
NCCN(CCN)C(=O)CC[C@H](N)C(=O)N[C@H](CCc1ccc(C(F)(F)F)cc1)C(=O)Nc1ccc(F)c(B(O)O)c1 [Compound 32, 5-((R)-2-((S)-2-amino-5-(bis(2-aminoethyl)amino)-5-oxopentanamido)-4-(4-(trifluoromethyl)phenyl)butanamido)-2-fluorophenylboronic acid] | B (B = MPC8 of 2.5 μg/ml to less than 10 μg/mL.)
NCCN(CCN)C(=O)CC[C@H](N)C(=O)N[C@H](CCc1ccc(C(F)(F)F)cc1)C(=O)Nc1cc(F)cc(B(O)O)c1 [Compound 33, 3-((R)-2-((S)-2-amino-5-(bis(2-aminoethyl)amino)-5-oxopentanamido)-4-(4-(trifluoromethyl)phenyl)butanamido)-5-fluorophenylboronic acid] | A (A = MPC8 of less than 2.5 μg/mL.)
NCCN(CCN)C(=O)CC[C@H](N)C(=O)N[C@H](CCc1ccc(C(F)(F)F)cc1)C(=O)Nc1cc(F)c(F)c(B(O)O)c1 [Compound 34, 5-((R)-2-((S)-2-amino-5-(bis(2-aminoethyl)amino)-5-oxopentanamido)-4-(4-(trifluoromethyl)phenyl)butanamido)-2,3-difluorophenylboronic acid] | C (C = MPC8 of 10 μg/mL or greater.)
NCCN(CCN)C(=O)CC[C@H](N)C(=O)N[C@H](CCc1ccc(C(F)(F)F)cc1)C(=O)Nc1ccc(B(O)O)cc1F [Compound 35, 4-((R)-2-((S)-2-amino-5-(bis(2-aminoethyl)amino)-5-oxopentanamido)-4-(4-(trifluoromethyl)phenyl)butanamido)-3-fluorophenylboronic acid] | B (B = MPC8 of 2.5 μg/ml to less than 10 μg/mL.)
NCCN(CCN)C(=O)CC[C@H](N)C(=O)N[C@H](CCc1ccc(C(F)(F)F)cc1)C(=O)NC[C@@H]1OB(O)c2ccccc21 [Compound 37, (S)-2-amino-N5,N5-bis(2-aminoethyl)-N1-((R)-1-(((R)-1-hydroxy-1,3-dihydrobenzo[c][1,2]oxaborol-3-yl)methylamino)-1-oxo-4-(4-(trifluoromethyl)phenyl)butan-2-yl)pentanediamide] | A (A = MPC8 of less than 2.5 μg/mL.)
CC1(C)OB(O)c2cc(NC(=O)[C@@H](CCc3ccc(C(F)(F)F)cc3)NC(=O)[C@@H](N)CCC(=O)N[C@@H]3C[C@H](N)C[C@H](N)C3)ccc21 [Compound 38, (S)-2-amino-N5-((1s,3R,5S)-3,5-diaminocyclohexyl)-N1-((R)-1-(1-hydroxy-3,3-dimethyl-1,3-dihydrobenzo[c][1,2]oxaborol-6-ylamino)-1-oxo-4-(4-(trifluoromethyl)phenyl)butan-2-yl)pentanediamide] | A (A = MPC8 of less than 2.5 μg/mL.)
CC1(C)OB(O)c2cc(NC(=O)[C@@H](CCc3ccc(C(F)(F)F)cc3)NC(=O)[C@@H](N)CCC(=O)NC(CN)CN)ccc21 [Compound 39, (S)-2-amino-N^5-(1,3-diaminopropan-2-yl)-N^1-((R)-1-(1-hydroxy-3,3-dimethyl-1,3-dihydrobenzo[c][1,2]oxaborol-6-ylamino)-1-oxo-4-(4-(trifluoromethyl)phenyl)butan-2-yl)pentanediamide] | A (A = MPC8 of less than 2.5 μg/mL.)
CC1(C)OB(O)c2cc(NC(=O)[C@@H](CCc3ccc(C(F)(F)F)cc3)NC(=O)[C@@H](N)CCC(=O)N(C[C@@H](O)CN)C[C@@H](O)CN)ccc21 [Compound 40, (S)-2-amino-N^5,N^5-bis((S)-3-amino-2-hydroxypropyl)-N^1-((R)-1-(1-hydroxy-3,3-dimethyl-1,3-dihydrobenzo[c][1,2]oxaborol-6-ylamino)-1-oxo-4-(4-(trifluoromethyl)phenyl)butan-2-yl)pentanediamide] | B (B = MPC8 of 2.5 μg/ml to less than 10 μg/mL.)

Reference: patent US8933018B2, “Boron containing polybasic bacterial efflux pump inhibitors and therapeutic uses thereof” (priority 2011, dated 2015)
